Data set [1] in a line: Cytotoxicity against rat H4IIE cells assessed as cell viability at 0.6 uM after 24 hrs by MTT assay relative to control. It is filed as toxicity. The conditions noted are these: read-out: Activity. Background: Tetrazolium dyes change colour on reduction, which living cells bring about.
Data set [2] deals with Acetylcholinesterase (Electrophorus electricus, UniProt O42275). Put plainly: Inhibition of electric eel AChE using acetylthiocholine iodide as substrate preincubated for 15 mins followed by substrate addition by Ellman's method. In general terms: DTNB colorimetry detects thiols as they appear.
The target of data set [3] is Cholinesterase (Equus caballus, UniProt P81908). Description: Inhibition of horse serum BuChE using butyrylthiocholine iodide as substrate preincubated for 15 mins followed by substrate addition by Ellman's method.
Data set [4] can be described thus: Cytotoxicity against rat H4IIE cells assessed as cell viability at 2.5 uM after 24 hrs by MTT assay relative to control. It is filed as toxicity. The conditions noted are these: read-out: Activity.
The nature of data set [5]: Cytotoxicity against rat H4IIE cells assessed as cell viability at 1.25 uM after 24 hrs by MTT assay relative to control. It is filed as toxicity. The conditions noted are these: read-out: Activity.
Data set [6] is described as follows: Cytotoxicity against rat H4IIE cells assessed as cell viability at 0.3 uM after 24 hrs by MTT assay relative to control. It counts as toxicity. The conditions noted are these: read-out: Activity.
Data set [7] can be described thus: Cytotoxicity against rat H4IIE cells assessed as cell viability at 5 uM after 24 hrs by MTT assay relative to control. The conditions noted are these: read-out: Activity. It is filed as toxicity.
Data set [8] in a line: Cytotoxicity against rat H4IIE cells assessed as cell viability at 10 uM after 24 hrs by MTT assay relative to control. It is filed as toxicity. The conditions noted are these: read-out: Activity.
A short description of data set [9]: Cytotoxicity against rat H4IIE cells assessed as cell viability at 0.07 uM after 24 hrs by MTT assay relative to control. It is filed as toxicity. The conditions noted are these: read-out: Activity.
Data set [10] in a line: Cytotoxicity against rat H4IIE cells assessed as cell viability at 0.15 uM after 24 hrs by MTT assay relative to control. It counts as toxicity. As to conditions: read-out: Activity.

Cholinesterase, sequence (P81908 whole entry): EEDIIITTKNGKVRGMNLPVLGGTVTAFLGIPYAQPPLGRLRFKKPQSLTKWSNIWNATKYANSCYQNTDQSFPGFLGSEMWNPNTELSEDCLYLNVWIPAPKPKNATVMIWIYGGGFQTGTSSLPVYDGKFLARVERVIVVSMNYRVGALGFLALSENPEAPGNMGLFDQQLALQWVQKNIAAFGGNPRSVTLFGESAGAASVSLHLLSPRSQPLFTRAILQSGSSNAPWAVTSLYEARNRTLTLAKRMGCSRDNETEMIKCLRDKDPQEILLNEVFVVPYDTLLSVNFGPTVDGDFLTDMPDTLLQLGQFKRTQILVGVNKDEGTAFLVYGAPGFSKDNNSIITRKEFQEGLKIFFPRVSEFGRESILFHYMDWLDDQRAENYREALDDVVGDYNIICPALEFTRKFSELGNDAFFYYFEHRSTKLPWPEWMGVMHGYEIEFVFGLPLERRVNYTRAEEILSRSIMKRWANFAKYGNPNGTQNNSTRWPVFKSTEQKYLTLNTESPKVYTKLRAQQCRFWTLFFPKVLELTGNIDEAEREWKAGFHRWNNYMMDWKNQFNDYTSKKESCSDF
Acetylcholinesterase, sequence (O42275 whole entry): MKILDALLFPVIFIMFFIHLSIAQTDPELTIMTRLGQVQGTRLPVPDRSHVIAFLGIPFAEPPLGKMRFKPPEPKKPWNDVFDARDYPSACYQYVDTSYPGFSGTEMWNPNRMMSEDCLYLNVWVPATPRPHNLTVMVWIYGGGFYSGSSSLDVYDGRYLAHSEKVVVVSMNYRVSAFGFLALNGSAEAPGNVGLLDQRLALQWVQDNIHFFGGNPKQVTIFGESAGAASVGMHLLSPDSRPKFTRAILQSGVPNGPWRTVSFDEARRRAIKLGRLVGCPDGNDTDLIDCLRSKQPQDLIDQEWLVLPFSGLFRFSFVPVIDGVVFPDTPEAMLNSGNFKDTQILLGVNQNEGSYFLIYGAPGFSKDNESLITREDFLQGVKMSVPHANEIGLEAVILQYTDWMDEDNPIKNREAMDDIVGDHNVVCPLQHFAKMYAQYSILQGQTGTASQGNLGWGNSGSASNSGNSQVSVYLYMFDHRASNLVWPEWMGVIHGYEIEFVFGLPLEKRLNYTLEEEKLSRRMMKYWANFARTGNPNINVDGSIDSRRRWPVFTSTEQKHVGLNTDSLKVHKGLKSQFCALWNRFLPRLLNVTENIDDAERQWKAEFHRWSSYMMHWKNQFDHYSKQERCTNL

As usually defined, the IC50 is the point on the concentration scale where inhibition reaches its midpoint. Take `Cc1ccc(C(C)C)c(OC(=O)Nc2ccc([N+](=O)[O-])cc2)c1`: in data set [1], the viability at 24 h, 0.6 µM was 51.7%. Besides, the IC50 was determined as 2.5 µM in [2] and 37.7 µM in [3]. Moreover, the viability at 24 h, 2.5 µM in data set [4] turned out to be 40%. The viability at 24 h, 1.25 µM in data set [5] is 47.2%. Moreover, the viability at 24 h, 0.3 µM in data set [6] was found to be 54.4%. In addition, the viability at 24 h, 5 µM in data set [7] came out at 32.8%. Moreover, in data set [8], the viability at 24 h, 10 µM was determined as 26.1%. Moreover, the viability at 24 h, 0.07 µM in [9] was determined as 97.8%. The viability at 24 h, 0.15 µM in data set [10] was 57.8%.
With `Cc1ccc(C(C)C)c(O)c1` [THYMOL], the figures for the IC50 in data set [2] and in data set [3] were 458 µM and 226 µM, respectively.
`COc1ccc(NC(=O)Oc2cc(C)ccc2C(C)C)cc1`: the 50% inhibitory concentration (IC50) in data set [3] was 60 µM.
In the case of `COc1ccc(NC(=O)Oc2cc(C(C)C)ccc2C)cc1`, the IC50 in [2] turned out to be 54.5 µM; in [3], 0.52 µM.
For `Cc1ccc(C(C)C)cc1OC(=O)Nc1ccc([N+](=O)[O-])cc1` the same measures were 121 µM and 1.05 µM.
For `Cc1ccc(C(C)C)cc1OC(=O)NCC1CCCCC1` the same measures were 8.08 µM and 0.3 µM.
For the compound `Cc1ccc(C(C)C)cc1OC(=O)Nc1ccc(F)cc1`, the viability at 24 h, 0.6 µM in data set [1] was 65.9%. Moreover, the results for the IC50 in data set [2] and in data set [3] were 3.02 µM and 0.02 µM, respectively. In data set [4], the viability at 24 h, 2.5 µM is 41.6%. The viability at 24 h, 1.25 µM in [5] came out at 62.2%. Besides, the viability at 24 h, 0.3 µM in data set [6] stood at 68.9%. Also, the viability at 24 h, 5 µM in data set [7] was determined as 32.8%. Further, the viability at 24 h, 10 µM in data set [8] came out at 28.5%. The viability at 24 h, 0.07 µM in data set [9] worked out at 92.8%. In data set [10], the viability at 24 h, 0.15 µM stood at 69.4%.
In the case of `Cc1ccc(C(C)C)c(OC(=O)Nc2ccccc2)c1`, the values for the IC50 in [2] and in data set [3] were 198 µM and 5.02 µM, respectively.
`Cc1ccc(C(C)C)c(OC(=O)NCC2CCCCC2)c1` had an IC50 in data set [3] of 36.8 µM.
Turning to `COc1cccc(NC(=O)Oc2cc(C)ccc2C(C)C)c1`, the values for the IC50 in [2] and in [3] were 154 µM and 1.65 µM, respectively.
`COc1cccc(NC(=O)Oc2cc(C(C)C)ccc2C)c1`: the results for the IC50 in [2] and in data set [3] were 2.24 µM and 1.64 µM, respectively.
On to `Cc1ccc(NC(=O)Oc2cc(C)ccc2C(C)C)cc1`, for which the IC50 amounted to 229 µM in data set [2] and 9.4 µM in data set [3].
For `Cc1ccc(NC(=O)Oc2cc(C(C)C)ccc2C)cc1` the same measures were 6.17 µM and 0.31 µM.
Taken in the same sequence, the figures for `Cc1ccc(C(C)C)c(OC(=O)Nc2cccc(F)c2)c1` were 88.5 µM and 3.85 µM.
For `Cc1ccc(C(C)C)c(OC(=O)Nc2ccc(F)cc2)c1` the same measures were 270 µM and 405 µM.
As for `Cc1ccc(C(C)C)cc1OC(=O)NC1CCCCCC1`, the half-inhibitory concentration (IC50) in data set [2] was found to be 126 µM; in [3], 112 µM.
`Cc1ccc(C(C)C)c(OC(=O)NCc2ccccc2)c1`: the values for the IC50 in data set [2] and in data set [3] were 111 µM and 1.45 µM, respectively.
As to `Cc1ccc(C(C)C)c(OC(=O)Nc2ccc(I)cc2)c1`, the results for the IC50 in data set [2] and in data set [3] were 31.6 µM and 4.77 µM, respectively.
For `Cc1ccc(C(C)C)c(OC(=O)Nc2ccc(Cl)c(Cl)c2)c1`, the concentration for half-maximal inhibition (IC50) in data set [2] came out at 89.5 µM; in [3], 2.54 µM.
For `Cc1ccc(C(C)C)cc1OC(=O)Nc1ccc(C(F)(F)F)cc1` the same measures were 85.7 µM and 1.23 µM.
With `Cc1ccc(C(C)C)c(OC(=O)Nc2cccc3ccccc23)c1`, the IC50 in data set [2] is 157 µM; in data set [3], 96.1 µM.
For `Cc1ccc(C(C)C)cc1O` [CARVACROL] the same measures were 288 µM and 411 µM.
Taken in the same sequence, the figures for `Cc1ccc(C(C)C)cc1OC(=O)Nc1ccc(Cl)cc1` were 148 µM and 0.13 µM.
Taken in the same sequence, the figures for `Cc1ccc(C(C)C)cc1OC(=O)Nc1ccc(Cl)c(Cl)c1` were 86.2 µM and 0.41 µM.
On to `Cc1ccc(C(C)C)c(OC(=O)NC2CCCC2)c1`, for which the IC50 in data set [2] was found to be 420 µM; in data set [3] it was 167 µM.
Taken in the same sequence, the figures for `Cc1ccc(C(C)C)c(OC(=O)Nc2ccc(Br)cc2)c1` were 98.6 µM and 107 µM.
For `Cc1ccc(C(C)C)cc1OC(=O)Nc1ccc(I)cc1` the same measures were 138 µM and 0.21 µM.
For `Cc1ccc(C(C)C)cc1OC(=O)Nc1cccc2ccccc12` the same measures were 127 µM and 0.51 µM.
As for `Cc1ccc(C(C)C)cc1OC(=O)Nc1cccc([N+](=O)[O-])c1`, the IC50 in data set [2] came to 5.05 µM; in data set [3], 0.56 µM.
On to `Cc1ccc(C(C)C)cc1OC(=O)NC1CCCC1`, for which the viability at 24 h, 0.6 µM in [1] is 63.3%. Also, the half-maximal inhibitory concentration (IC50) in data set [2] amounted to 3.37 µM; in data set [3], 1.01 µM. In addition, the viability at 24 h, 2.5 µM in [4] stood at 47.8%. In addition, the viability at 24 h, 1.25 µM in data set [5] worked out at 50.4%. Moreover, in [6], the viability at 24 h, 0.3 µM was found to be 71.1%. Moreover, the viability at 24 h, 5 µM in data set [7] amounted to 38.9%. The viability at 24 h, 10 µM in [8] worked out at 37.4%. Besides, the viability at 24 h, 0.07 µM in [9] turned out to be 94.4%. Besides, the viability at 24 h, 0.15 µM in data set [10] is 75.6%.
As for `Cc1ccc(C(C)C)cc1OC(=O)NC1CCCCC1`, the IC50 turned out to be 23 µM in data set [2] and 1.03 µM in [3].
Turning to `Cc1ccc(C(C)C)cc1OC(=O)Nc1ccccc1`, the viability at 24 h, 0.6 µM in [1] was determined as 82.5%. The half-maximal inhibitory concentration (IC50) worked out at 4.01 µM in data set [2] and 0.55 µM in [3]. For the same compound, the viability at 24 h, 2.5 µM in [4] is 43.3%. Further, in data set [5], the viability at 24 h, 1.25 µM was 60%. Further, in [6], the viability at 24 h, 0.3 µM was 90%. For the same compound, in data set [7], the viability at 24 h, 5 µM worked out at 25.8%. The viability at 24 h, 10 µM in data set [8] was found to be 26%. Besides, the viability at 24 h, 0.07 µM in [9] was 93.8%. Moreover, the viability at 24 h, 0.15 µM in data set [10] amounted to 87.9%.
As to `Cc1ccc(C(C)C)cc1OC(=O)NCc1ccccc1`, the IC50 in [2] was 77.8 µM; in data set [3], 0.07 µM.
For `Cc1ccc(C(C)C)c(OC(=O)Nc2ccc(Cl)cc2)c1` the same measures were 229 µM and 137 µM.
Taken in the same sequence, the figures for `Cc1ccc(C(C)C)c(OC(=O)Nc2cccc([N+](=O)[O-])c2)c1` were 82.9 µM and 3.31 µM.
Taken in the same sequence, the figures for `Cc1ccc(C(C)C)cc1OC(=O)Nc1ccc(Br)cc1` were 104 µM and 0.15 µM.
For `Cc1ccc(C(C)C)cc1OC(=O)Nc1cccc(F)c1`, the viability at 24 h, 0.6 µM in data set [1] was determined as 64.4%. Further, the results for the IC50 in data set [2] and in data set [3] were 2.22 µM and 1.02 µM, respectively. The viability at 24 h, 2.5 µM in data set [4] turned out to be 45.8%. In data set [5], the viability at 24 h, 1.25 µM was 47.8%. Moreover, in data set [6], the viability at 24 h, 0.3 µM stood at 74.1%. In addition, the viability at 24 h, 5 µM in [7] was 37.2%. Also, the viability at 24 h, 10 µM in data set [8] stood at 28.5%. The viability at 24 h, 0.07 µM in data set [9] amounted to 98.1%. The viability at 24 h, 0.15 µM in data set [10] came to 90%.
As for `Cc1ccc(C(C)C)c(OC(=O)Nc2ccc(C(F)(F)F)cc2)c1`, the IC50 was 98.5 µM in data set [2] and 148 µM in data set [3].

The values are drawn from ChEMBL document CHEMBL3877312, “Synthesis, anticholinesterase activity and molecular modeling study of novel carbamate-substituted thymol/carvacrol derivatives” (Bioorg Med Chem, 2017).
